Like-named read-outs stand apart in the source and are kept apart here.
Legend:
[1] = test system: HIV-1 RT-MDR (NRTI-resistant, NNRTI-resistant); assay: p24 antigen assay, RT-MDR strain; format: cell-based
[2] = Microculture tetrazolium assay (MTA) cytotoxicity in PBMNC; conditions: human
Method: (§1) Percent inhibition of viral replication was calculated by comparing the p24 and RT activity values from the test substance-treated infected cells with those from untreated infected cells. In parallel, the cytotoxicity of the compounds was examined using a microculture tetrazolium assay (MTA) of cell proliferation, as described.in the Zarling, Enrice, and Uckun articles Supra).
(§2) Cellular Assays of Anti-HIV Activity and Cytotoxicity. […] Percent viral inhibition was calculated by comparing the RT activity values from the test substance-treated infected cells with RT values from untreated infected cells (i.e., virus controls).
Antiviral susceptibility assays. Phenotypic drug susceptibility studies of HIV-1 isolates and strains were performed by measuring the production of the p24 gag protein in peripheral blood mononuclear cells (PBMC) from seronegative healthy volunteers in the presence of increasing concentrations of the anti-HIV agent using the quantitative Coulter HIV-1 p24 antigen ezyme immunoassay (EIA) and HIV-1 p24 Antigen Kinetic Standard (Beckman Coulter), as previously described (Uckun, 1998, Antimicrobial Agents and Chemotherapy 37(4): 835-38). Informed consent was obtained from the blood donors according to DHHS guidelines using consent forms approved by the Institutional Review Board. In brief, PBMC were cultured for 72 h in RPMI 1640 medium (Gibco) supplemented with 20% (vol/vol) heat-inactivated fetal bovine serum, 5% human interleukin-2 (Zeptometrix), 2 mM L-glutamine, 25 mM HEPES, 2 g/L NaHCO3, 100 U/ml penicillin/streptomycin (Gibco), 50 μg/ml gentamicin (Gibco), and 5 μg/ml phytohemagglutinin-P (PHA-P) (Sigma) for 24-72 hours prior to exposure to HIV at a multiplicity of infection of 0.001-0.1 during a 1-h adsorbtion period at 37±1° C. in a humidified 5-7% CO2 atmosphere. Subsequently, cells were cultured in 96-well microtiter plates (100 μl/well; 2×10^6 cells/ml, triplicate wells) in the presence of the anti-HIV agents at 6-7 different concentrations ranging from 0.0001 μM to 100 μM, and 25 μL aliquots of culture supernatants were removed from the wells on day 6 after infection for p24 EIA, as previously described (Uckun, 1998, Antimicrobial Agents and Chemotherapy, 37(4):835-38). Controls included uninfected and untreated cells (background control) and infected but untreated (virus control) cells. The p24 EIA utilizes a murine monoclonal antibody to HIV core protein used to coat microwell strips to which the antigen present in the test culture supernatant samples binds. Percent inhibition of viral replication was calculated by comparing the p24 values from the test substance-treated infected cells with p24 values from untreated infected cells (i.e., virus controls). The IC50 values were determined using the Statview statistics program (SAS Institute, Inc.). In parallel, the effects of various treatments on cell viability were also examined as previously described (Uckun, 1998, Antimicrobial Agents and Chemotherapy, 42:383-388). In brief, noninfected PBMC were treated with each compound for 5 days under identical experimental conditions. A microculture tetrazolium assay (MTA) was performed to quantitate cellular proliferation (Uckun, 1998, Antimicrobial Agents and Chemotherapy, 42:383-388).
In parallel, the cytotoxicity of the compounds was examined using a microculture tetrazolium assay (MTA) of cell proliferation, as described (in the Zarling, Enrice, and Uckun articles Supra).

[3] = test system: HIV-1 A17-variant (Y181C+K103N mutant, NNRTI-resistant); assay: p24 antigen assay, A17-variant strain in PBMC; format: cell-based; conditions: Human immunodeficiency virus 1, PBMC
Source text: In vitro assays of anti-HIV-1 activity.
Viruses. 20 primary clinical isolates with genotypic and/or phenotypic NRTI-resistance (isolated in the laboratory of D. Richman) and 10 clinical isolates with phenotypic stavudine (d4T) resistance (obtained through the AIDS Research and Reference Reagent Program, NIAID) were used in the current study. The HIV-1 strains HTLVIIIB (wildtype RT, NRTI-sensitive, NNRTI-sensitive), A17 (Y181 C mutant, NNRTI-resistant), A17-variant (Y181C+K103N mutant, NNRTI-resistant), and RT-MDR (M41 L, V106N, T215Y; NRTI-resistant, NNRTI-resistant) were also obtained from the AIDS Research and Reference Reagent Program, NIAID.
Antiviral susceptibility assays.

[4] = in vitro; conditions: human
Method: as §1, §2

[5] = test system: HIV-1 (strain: HTLVIIIB); assay: microbe, parasite or virus in culture; format: cell-based
Method: as §1, §2

[6] = Human immunodeficiency virus 1, MT2, laboratory strain RT-MDR (V106N), MT-2 cells, Table 14
[7] = Human immunodeficiency virus 1, PBMC, read-out: IC50 value for inhibition of RT activity, peripheral blood mononuclear cells
[8] = Human immunodeficiency virus 1, read-out: IC50 [RT], PBMNC, unit not printed in Table 2 (0.040 = 40 nM)
[9] = Human immunodeficiency virus 1, read-out: IC50 [p24], PBMNC, unit not printed in Table 2 (0.018 = 18 nM)
[10] = Human immunodeficiency virus 1, read-out: PBMNC IC50 [RT], PBMNC, unit not given in Table 5 (0.04 = 40 nM)
[11] = Human immunodeficiency virus 1, RT-MDR(Con) control strain (M41L, L74V, T215Y, V106N)
[12] = Human immunodeficiency virus 1, read-out: IC50 RTMDR, p24

Row | SMILES | IC50 [1, 6] [nM] | IC50 [3] [nM] | CC50 at 5 days ([2]; CC50, μM) [µM] | IC50 [5, 7] [nM] | IC50 [5, 8] [nM] | IC50 [5, 9] [nM] | IC50 [5, 10] [nM] | IC50 [1, 11] [nM] | IC50 [1, 12] [nM] | IC50 ([3]; read-out: IC50 A17V) [nM] | also measured
1 | Cc1ccnc2c1NC(=O)c1cccnc1N2C1CC1 [nevirapine] | 18000 ± 8000 | 32000 ± 7000 | – | – | – | – | – | – | – | – | CC50 at 5 days ([2]; PBMC or MT-2 cells, CC50 values, data not shown): > 100 µM; CC50 at 5 days ([2]; peripheral blood mononuclear cells (PBMC), CC50, μM, viability of PBMC): 5.1 ± 2.3 µM
2 | Cc1cn([C@H]2C=C[C@@H](CO)O2)c(=O)[nH]c1=O [d4T, 2′,3′-didehydro-2′,3′-dideoxythymidine] | – | – | 4.5 ± 1.7 | 40 | 40 | 18 | 40 | – | – | – | IC50 ([4]; IC50 [MTA]): > 10000 nM; IC50 at 5 days ([2]; IC50 [MTA]): > 10000 nM; IC50 ([5]; Human immunodeficiency virus 1, PBMC, read-out: IC50 value for inhibition of p24 production, peripheral blood mononuclear cells): 18 nM; IC50 ([5]; Human immunodeficiency virus 1, read-out: PBMNC IC50 [RT], PBMNC, Table 4): 4 nM
3 | Cc1cn([C@H]2C[C@H](N=[N+]=[N-])[C@@H](CO)O2)c(=O)[nH]c1=O [AZT, 3′-azido-3′-deoxythymidine] | – | – | 95.6 ± 2.9 | – | – | – | – | > 10000 | 68 | 0.005 | IC50 ([4]; CEM IC50 [MTA]): > 10000 nM; CC50 at 5 days ([2]; CC50): 0.0527 µM; IC50 at 5 days ([2]; PBMNC IC50 [MTA]): > 10000 nM; IC50 ([5]; Human immunodeficiency virus 1, PBMC, peripheral blood mononuclear cells, read-out: IC50 value for inhibition of RT activity): 3 nM; IC50 ([5]; Human immunodeficiency virus 1, PBMNC, unit not given in Table 5 (0.04 = 40 nM), read-out: PBMNC IC50 [RT]): 3 nM
4 | COC(=O)C(C)NP(=O)(OC[C@@H]1C=C[C@H](n2cc(C)c(=O)[nH]c2=O)O1)Oc1ccc(Br)cc1 (some centres unmarked) [Compound 1c, d4T-5′-[p-bromo-phenylmethoxyalaninyl phosphate]] | < 1 | < 1 | – | 42 | 42 | 22 | 40 | < 1 | 20 to 60 | 47 ± 27 | IC50 [4]: > 10000 nM; IC50 ([1]; read-out: IC50 RTMDR, p24): 21 ± 12 nM; CC50 at 5 days [2]: > 100 µM; IC50 at 5 days [2]: > 10000 nM
